The values below come from a compilation of properties of binary mixtures (doi:10.1016/j.molliq.2022.120983).

The nature of this data set: xn = mol fraction of the nth substance listed. The following applies: 101.3 kPa.

The term viscosity denotes the resistance of a fluid to flow. Read a high viscosity as a thick fluid. In the case of `C[C@H](N)C(=O)[O-].C[N+](C)(C)CCO` + O, the viscosity reads like this: (298.1 K, x1 = 0.0588) 5 mPa·s; (298.1 K, x1 = 0.1232) 9.1 mPa·s; (313 K, x1 = 0.0588) 3.18 mPa·s; (313 K, x1 = 0.2726) 18.2 mPa·s; (333 K, x1 = 0.1232) 3.64 mPa·s; (333 K, x1 = 0.2726) 10.2 mPa·s.
For the compound `C[N+](C)(C)CCO.NCC(=O)[O-]` + O, the viscosity reads like this: (298.1 K, x1 = 0.0631) 4.09 mPa·s; (298.1 K, x1 = 0.1317) 10 mPa·s; (298.1 K, x1 = 0.2879) 20.9 mPa·s; (313 K, x1 = 0.0631) 2.73 mPa·s; (313 K, x1 = 0.1317) 6.4 mPa·s; (313 K, x1 = 0.2879) 12.3 mPa·s. Besides, the viscosity is 1.82 mPa·s (333 K, x1 = 0.0631); 3.64 mPa·s (333 K, x1 = 0.1317); 7.3 mPa·s (333 K, x1 = 0.2879).
